Earlier results, collected in patent US6638541B1, “Sexual desire and performance enhancement with protein-bound tryptophan” (priority 2002, dated 2003).

Experiments:
plasma albumin = target: T1, plasma albumin (Homo sapiens, UniProt P02768); conditions: after absorption, circulating in the blood
T1 construct: host or cells: blood plasma in vivo (endogenous circulating albumin)

[1] = higher dosages (greater than 12 gm per day); Hartmann, 1977

T1 sequence (P02768 25-609): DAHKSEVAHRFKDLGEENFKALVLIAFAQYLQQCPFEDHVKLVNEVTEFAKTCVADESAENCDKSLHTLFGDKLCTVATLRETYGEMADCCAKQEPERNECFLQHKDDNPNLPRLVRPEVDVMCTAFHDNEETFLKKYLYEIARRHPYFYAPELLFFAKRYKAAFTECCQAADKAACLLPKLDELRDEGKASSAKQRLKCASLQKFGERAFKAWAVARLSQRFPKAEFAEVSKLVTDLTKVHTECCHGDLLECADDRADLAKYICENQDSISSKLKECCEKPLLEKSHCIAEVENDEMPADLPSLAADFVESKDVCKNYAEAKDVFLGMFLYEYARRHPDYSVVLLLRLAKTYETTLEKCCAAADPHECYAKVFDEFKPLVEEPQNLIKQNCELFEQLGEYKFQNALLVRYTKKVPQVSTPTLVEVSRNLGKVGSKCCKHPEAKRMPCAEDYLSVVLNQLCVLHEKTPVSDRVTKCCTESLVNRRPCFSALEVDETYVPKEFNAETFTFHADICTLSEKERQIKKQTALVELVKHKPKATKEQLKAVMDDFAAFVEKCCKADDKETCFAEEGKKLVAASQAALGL

## N[C@@H](Cc1c[nH]c2ccccc12)C(=O)O [tryptophan]
Plasma albumin
  fraction circulating as free tryptophan: 20%
  fraction of tryptophan in blood bound to plasma albumin: approximately 80%
Sleep / sleep latency; fairly flat dose-response curve, Schneider-Helmut and Spinweber, 1986
  dose at which the hypnotic dose-response curve plateaus: approximately 1000 mg
Sleep / sleep latency; given alone, people with mild insomnia or longer-than-average sleep latency
  dose sufficient to produce improved sleep: 250 mg
[1]
  most frequent complaints: daytime sedation and nausea
